Experimental findings from patent US20140249143A1, “Compounds And Methods For Enhancing Innate Immune Responses” (GlaxoSmithKline LLC, priority 2011, published 2014) are described below.

Common to all, as to type: cell-based
Assay [1] relates to reconstructed human epidermis (RHE) keratinocytes. Put plainly: JAK/STAT induction in reconstructed human epidermis (western blot, real-time PCR). The conditions noted are these: 10 μM (IFN-alpha 100 U/mL), 6 and 72 hrs. Here is the method: First, reconstructed human epidermis (“RHE”) consisting of cultured human keratinocyte cells were incubated in triplicate with media containing either the media alone, media+0.1% DMSO, media containing 10 μM of several putative JAK/STAT activator compounds described herein in Tables 1 and 2 (Example 1, Example 2, Example 11, and compound no. 89 (as a negative control)), or media containing 100 U/mL of a positive control Interferon-alpha (IFN-alpha) recombinant protein at 37° C. in a humidified atmosphere containing 5% CO2, for 6 and 72 hours.
At the end of the incubation period, the RHE tissues were cut into two sections. One section was ¼ of the total size and the second section was […].

The test system of assay [2] is ISG56 (Interferon-Stimulated Gene 56) promoter ISRE. Put plainly: ISG56 luciferase reporter assay in HEK 293 cells. The note with it: Homo sapiens, HEK293; HEK 293 reporter, 24 hours; 100% = small molecule control test compound; read-out: ISG56 (Average Max Response) %. How it is done:
Compounds of the present invention were tested against a HEK (Human Embryonic Kidney) 293 cell line that was stably transfected with a firefly luciferase reporter gene under the control of the ISG56 (Interferon-Stimulated Gene 56) promoter ISRE (Interferon-Stimulated Response Element). While the ISRE is in the opposite orientation of the wild type promoter, literature^1 cites that the response elements are pallindromic and function properly in either orientation. ^1Reich, N., Evans, B., Levy, D., Fahey, D., Knight, E., Damell, J. E. (1987) Interferon-induced transcription of a gene encoding a 15-kDa protein depends on an upstream enhancer element. See, Proc. Natl. Acad. Sci. 84, (6394-6398).
In preparation for the assay, test compounds were serially diluted 3-fold in DMSO from a typical top concentration of 5 mM and plated at 0.2 μL in a 384-well, polystyrene, tissue culture treated plate with lid (Greiner Bio-One North America, Inc., Monroe, N.C.) to generate 11-point dose response curves in the assay. Low control wells (0% response) contained 0.2 μL of DMSO alone, and high control wells (100% response) contained 0.2 μL of a small molecule control test compound.
Frozen stocks of the transfected HEK 293 cells were washed and recovered in DMEM I Ham's F-12 media (Invitrogen Corporation, Carlsbad, Calif.) supplemented with 10% v/v qualified Australian fetal bovine serum (FBS) (Invitrogen Corporation, Carlsbad, Calif.), 1× GlutaMAX™ (Invitrogen Corporation, Carlsbad, Calif.), 1×MEM non-essential amino acids (NEAA) (Invitrogen Corporation, Carlsbad, Calif.) and 500 μg/ml Geneticin® (Invitrogen Corporation, Carlsbad, Calif.). The cells were diluted to 500,000 cells/mL in the supplemented DMEM/Ham's F-12 media, and 20 μL of the cell suspension were added to each well of the previously prepared 384-well compound plate, resulting in 10,000 cells/well. The plate, with lid, were placed in a 37° C., 5% CO2 humidified incubator for 24 hours.
Following incubation, the plates were removed and placed on the bench top without lids to equilibrate to room temperature for 30 minutes. Steady-Glo® (Promega Corporation, Madison, Wis.) was prepared according to the manufacturer's instructions, and 10 μL were added to each plate well. After a twenty minute incubation at room temperature, luminescence was read on a ViewLux™ (PerkinElmer Inc., Waltham, Mass.).
The data for dose responses were plotted as % activation versus compound concentration following normalization using the formula 100*((U−C1)/(C2−C1)), where U was the unknown value, C1 was the average of the low (0% response) control wells and C2 was the average of the high (100% response) control wells. Curve fitting was performed with the equation y=A+((B−A)/(1+(10^x/10^C)^D)), where A was the minimum response, B was the maximum response, C was the log(EC50) and D was the Hill slope. The results for each test compound were recorded as pEC50 values (—C in the above equation) and as max response values at a given concentration.
In general terms: Reporter assays use an easily measured gene product as a stand-in for the process of interest.

Assay [3] relates to HCV genotype 1b subgenomic replicon. Put plainly: Anti-Hepatitis C replicon assay, genotype 1b (luciferase). The note with it: Hepatitis C virus; luciferase activity measured 48 hours later; read-out: HCV Genotype 1B Replicon pEC50 (converted). How it is done:
(§1) Compounds were assayed for activity against HCV using the genotype 1a and 1b subgenomic replicon model systems. Stable cell lines bearing the genotype 1a and 1b replicons were used for screening of compounds. Both replicons are bicistonic and contain the firefly luciferase gene. The ET cell line is stably transfected with RNA transcripts harboring a I389luc-ubi-neo/NS3-3′/ET replicon with firefly luciferase-ubiquitin-neomycin phosphotransferase fusion protein and EMCV-IRES driven NS3-5B polyprotein containing the cell culture adaptive mutations (E1202G; T1280I; K1846T) (Krieger at al, 2001 and unpublished). The genotype 1a replicon is a stable cell line licensed from Apath LLC, modified to contain the firefly luciferase gene. The cells were grown in DMEM, supplemented with 10% fetal calf serum, 2 mM Glutamine, Penicillin (100 IU/mL)/Streptomycin (100 μg/mL), 1× nonessential amino acids, and 250-500 μg/mL G418 (“Geneticin”). They were all available through Life Technologies (Bethesda, Md.). The cells were plated at 0.5×10^4 cells/well in 384 well plates containing compounds. The final concentration of compounds ranged between 0.03 pM to 50 μm and the final DMSO concentration of 0.5-1%.
(§2) Luciferase activity was measured 48 hours later by adding a Steady glo (Promega, Madison, Wis.). Percent inhibition of replication data was plotted relative to no compound control. Under the same condition, cytotoxicity of the compounds was determined using cell titer glo (Promega, Madison, Wis.). IC50s were determined from a 10 point dose response curve using 3-4-fold serial dilution for each compound, which spans a concentration range>1000 fold. BioAssay determines the level of inhibition for each compound by normalizing cross-talk corrected plate values against the negative (low or background, cells with no compound present) and positive (high DMSO, no cells) controls to determine Percent Inhibition:
(§3) These normalized values are exported to IC50 where they are plotted against the molar compound concentrations using the standard four parameter logistic equation: […]
(In general: A replicon is a self-replicating genome or part of one, used to study replication in cells.)

The test system of assay [4] is HCV genotype 1a subgenomic replicon. Put plainly: Anti-Hepatitis C replicon assay, genotype 1a (luciferase). The conditions noted are these: Hepatitis C virus; luciferase activity measured 48 hours later; read-out: HCV Genotype 1A Replicon pEC50 (converted). How it is done:
as §1, §2, §3

Assay [5] addresses T1, human JAK1 (Homo sapiens, UniProt P23458).
T1 construct: expressed in transfected cells; host or cells: U4A cells (JAK1-deficient derivative of the human fibroblast line 2fGH), transduced with a baculovirus mammalian expression system
Put plainly: JAK1 reconstitution in U4A and 2fGH cells (phosphor-STAT1 western blot, Taqman mRNA). The note with it: 100 U/ml. How it is done: 2fGH and U4A cells were obtained from the Cleveland Clinic. 2fGH is a human fibroblast cell line and U4A cell line is a derivative 2fGH harboring a defect in JAK1 expression (Muller, et al., Nature 366, 129-135 (1993)). Green fluoroscent protein (GFP) or human JAK1 was transduced in U4A cells by baculovirus mammalian expression system. After 24 hours post transduction, the cells were treated with DMSO, Example 1 (10 μM), IFNα (100 U/ml), IFNβ (100 U/ml), or IFNγ (100 U/ml). Untransduced U4A cells and 2fGH cells were included as controls for 6 or 18 hours. The cells were harvested at indicated time points and used for detecting phosphor-STAT1 by western blot (FIG. 10, panel A) or for mRNA analysis by Taqman quantitation (FIG. 10, panel B).
The total cell lysates were analyzed on a 4-20% SDS-PAGE gradient gel and followed by immunoblotting using anti-phopho STAT1 antibody (Cell Signaling). The level of actin was monitored as a loading control. The bands were visualized by the alkaline phosphatase activity conjugated with the secondary antibody (Promega) using ProtoBlot II AP system (Promega).
Gene expression was measured using TaqMan Fast Universal PCR Master Mix (Applied Biosystems) and gene specific probes and murine primers in HT7900 FAST System (Invitrogen). As housekeeping genes, actin and GAPDH were used for normalization. Data was calculated by the ΔΔCt method and fold change determined compared to non-treated control samples.

T1 sequence (P23458 whole entry): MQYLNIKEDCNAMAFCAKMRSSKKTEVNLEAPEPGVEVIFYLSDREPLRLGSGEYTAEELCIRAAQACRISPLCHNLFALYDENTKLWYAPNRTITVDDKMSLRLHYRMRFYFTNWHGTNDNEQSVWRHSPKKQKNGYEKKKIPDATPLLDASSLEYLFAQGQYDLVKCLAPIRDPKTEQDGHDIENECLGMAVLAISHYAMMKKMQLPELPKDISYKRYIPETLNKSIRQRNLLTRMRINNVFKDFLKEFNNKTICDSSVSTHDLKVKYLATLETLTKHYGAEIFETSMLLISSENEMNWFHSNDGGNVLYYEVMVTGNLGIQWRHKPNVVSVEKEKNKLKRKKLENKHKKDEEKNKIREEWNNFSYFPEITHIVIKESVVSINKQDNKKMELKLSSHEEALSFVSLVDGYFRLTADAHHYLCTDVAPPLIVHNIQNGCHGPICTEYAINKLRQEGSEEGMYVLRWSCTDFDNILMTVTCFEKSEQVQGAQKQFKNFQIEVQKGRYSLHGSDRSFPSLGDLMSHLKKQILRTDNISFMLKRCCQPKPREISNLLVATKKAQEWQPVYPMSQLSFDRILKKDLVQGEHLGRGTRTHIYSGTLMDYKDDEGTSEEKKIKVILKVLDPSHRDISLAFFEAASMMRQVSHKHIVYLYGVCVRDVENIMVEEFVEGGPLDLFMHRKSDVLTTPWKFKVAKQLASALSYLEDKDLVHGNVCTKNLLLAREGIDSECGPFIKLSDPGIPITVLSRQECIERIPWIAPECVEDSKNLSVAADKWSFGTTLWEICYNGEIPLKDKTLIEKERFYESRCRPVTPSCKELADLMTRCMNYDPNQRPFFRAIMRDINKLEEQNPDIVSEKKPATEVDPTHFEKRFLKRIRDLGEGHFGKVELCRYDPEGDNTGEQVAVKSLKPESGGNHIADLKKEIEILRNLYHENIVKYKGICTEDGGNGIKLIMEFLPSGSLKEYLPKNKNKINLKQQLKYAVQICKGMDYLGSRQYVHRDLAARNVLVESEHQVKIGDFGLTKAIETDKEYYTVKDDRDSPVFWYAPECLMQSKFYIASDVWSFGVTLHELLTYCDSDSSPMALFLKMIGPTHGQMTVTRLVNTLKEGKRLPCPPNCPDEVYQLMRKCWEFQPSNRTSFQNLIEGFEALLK

In the case of `FC(F)(F)c1cc(C2CCCC2)nc2c1ccc1nc(-c3nnco3)cn12` [Compound 2, 2-[2-cyclopentyl-4-(trifluoromethyl)imidazo[1,2-a]1,8-naphthyridin-8-yl]-1,3,4-oxadiazole], the “Stat1 phosphorylation (western blot)” value in assay [1] was “Stat1 phosphorylation”. In assay [2], the Emax turned out to be 31%. Also, the figures for the EC50 in assay [3] and in assay [4] were 251 nM and 50.1 nM, respectively.

For `CCOc1cc(C(F)(F)F)c2ccc3nc(-c4nnco4)cn3c2n1` [Compound 10, 2-[2-ethoxy-4-(trifluoromethyl)imidazo[1,2-a]1,8-naphthyridin-8-yl]-1,3,4-oxadiazole], in assay [2], the Emax amounted to 10%. In addition, the EC50 was 794 nM in assay [3] and 1000 nM in assay [4].

Turning to `CC(C)c1cc(C(F)(F)F)c2ccc3nc(-c4nnco4)cn3c2n1` [Compound 3, 2-[2-(propan-2-yl)-4-(trifluoromethyl)imidazo[1,2-a]1,8-naphthyridin-8-yl]-1,3,4-oxadiazole], the Emax in assay [2] was determined as 408%. The EC50 in assay [3] was 316 nM; in assay [4] it was 100 nM.

With `FC(F)(F)c1cc(Cl)nc2c1ccc1nc(-c3nnco3)cn12` [Compound 29, 2-[2-chloro-4-(trifluoromethyl)imidazo[1,2-a]1,8-naphthyridin-8-yl]-1,3,4-oxadiazole], in assay [2], the Emax came out at 10%. Moreover, the EC50 in assay [3] was 7940 nM; in assay [4] it was 6310 nM.

For `FC(F)(F)c1cc(C(F)(F)F)c2ccc3nc(-c4nnco4)cn3c2c1` [Compound 24, 2-[6,8-bis(trifluoromethyl)imidazo[1,2-a]quinolin-2-yl]-1,3,4-oxadiazole], the Emax in assay [2] is 5.75%. Besides, the EC50 was 3160 nM in assay [3] and 631 nM in assay [4].

Consider `FC(F)(F)c1cc(C(F)(F)F)c2ccc3nc(-c4ccco4)cn3c2n1` [Compound 25, 8-(furan-2-yl)-2,4-bis(trifluoromethyl)imidazo[1,2-a]1,8-naphthyridine], for which the Emax in assay [2] came out at 6.5%. For the same molecule, the EC50 was 3160 nM in assay [3] and 3980 nM in assay [4].

With `FC(F)(F)c1cc(C(F)(F)F)c2ccc3[nH]c(-c4cnco4)nc3c2n1` [Compound 28, 5-[6,8-bis(trifluoromethyl)-3H-imidazo[4,5-h]quinolin-2-yl]-1,3-oxazole], the Emax in assay [2] stood at 11.5%. Besides, the values for the EC50 in assay [3] and in assay [4] were 7940 nM and 10000 nM, respectively.

For the molecule `FC(F)(F)c1cc(-c2ccccc2)nc2c1ccc1nc(-c3nnco3)cn12` [Compound 17, 2-[2-phenyl-4-(trifluoromethyl)imidazo[1,2-a]1,8-naphthyridin-8-yl]-1,3,4-oxadiazole], in assay [2], the Emax was determined as 31.5%. The EC50 was 1260 nM in assay [3] and 501 nM in assay [4].

Turning to `FC(F)(F)c1cc(-c2ccoc2)nc2c1ccc1nc(-c3nnco3)cn12` [Compound 12, 2-[2-(furan-3-yl)-4-(trifluoromethyl)imidazo[1,2-a]1,8-naphthyridin-8-yl]-1,3,4-oxadiazole], the Emax in assay [2] turned out to be 13.5%. The EC50 in assay [3] is 794 nM; in assay [4] it was 398 nM.

B1: IFNγ: type II interferon used as control treatment (100 U/ml) (protein, UniProt P01579 24-161, looked up)
Interferon gamma: QDPYVKEAENLKKYFNAGHSDVADNGTLFLGILKNWKEESDRKIMQSQIVSFYFKLFKNFKDDQSIQKSVETIKEDMNVKFFNSNKKKRDDFEKLTNYSVTDLNVQRKAIHELIQVMAELSPAAKTGKRKRSQMLFRG
Regarding B1, the “expression of CXCL9 in 2fGH cells” value in assay [5] is recorded as “only observed with IFNγ treatment”.
